From article PMC13095408, “DBeQ derivative targets vacuolar protein sorting 4 functions in cancer cells and suppresses tumor growth in mice” (The Journal of Pharmacology and Experimental Therapeutics, 2025)

Experiments:
[1] = tested on: GFP-CHMP4B-expressing U2OS cells; assay: GFP-CHMP4B accumulation cell-based assay (high-content microscopy)
Outline: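 GFP-CHMP4B U2OS cells were cultured overnight, stained, then treated in SM with compounds (0.1% DMSO or 0.1% DMSO/0.1% ethanol vehicle final). High-content imaging used a 20× NA .70 objective at set intervals, ≥300 cells/well over 3 fields/well.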

[2] = Caco-2 permeability; assay type: in vitro ADME; conditions: human, 10 μM of compound
Protocol: All in vitro absorption, distribution, metabolism, and excretion (ADME) studies were conducted by BioDuro-Sundia. […] Caco-2 permeability, human liver microsomal stability, and human plasma protein binding assays as well as liquid chromatography-mass spectrometry/mass spectrometry analyses were performed following standard protocols previously described in detail ([Kazakova et al, 2023]).

[3] = tested on: GFP-CHMP4B- and mCherry-LGALS3-expressing U2OS cells; assay: mCherry-LGALS3 accumulation, endolysosomal membrane integrity (HCM); assay type: cell-based; conditions: 2 μM 4-107, starved, 2 hours
Protocol: Live-cell fluorescence imaging and analysis were performed using the CellInsight CX7 LZR high-content screening platform with Onstage Incubator (Thermo Scientific; 37 °C, 5% CO2, 20% O2, 60% humidity). SM was acclimatized at 37 °C and 5% CO2 for at least 30 minutes prior to all experiments for pH equilibration. For cell-based VPS4i screen, U2OS cells stably expressing N-terminal GFP-tagged charged multivesicular body protein 4B (GFP-CHMP4B) were cultured in black clear-bottom 96-well plates (Corning; 3603) at a density of 6000 cells/well. Cells were stained with Hoechst 33342 (1:1000) for 15 minutes at 37 °C, rinsed with 1× Dulbecco's phosphate-buffered saline (DPBS), and treated with SM containing 0.1% DMSO or 1 μM test compounds. Plates were then scanned using the 20× objective for 1 hour with ≥100 cells/well across 6 fields/well. Fluorescence intensity of GFP-CHMP4B foci per cell for each compound was normalized to that of 4-107. For all other assays, the cells were cultured overnight in black glass-bottom 96-well plates (Cellvis; P96-1.5H-N) then stained, rinsed, and treated with SM containing the indicated compounds (0.1% DMSO or 0.1% DMSO/0.1% ethanol [vehicle] final). Plates were scanned using the 20× NA .70 objective at the indicated intervals with ≥ 300 cells/well across 3 fields/well. […]

[4] = biological target: T1, VPS4B (Homo sapiens, UniProt O75351); assay: VPS4B ATPase activity, EnzChek Phosphate assay; assay type: biochemical; set-up: His tag (pET28a vector-encoded) (N); made in house; host or cells: Escherichia coli BL21(DE3)
T1 sequence (O75351 1-444): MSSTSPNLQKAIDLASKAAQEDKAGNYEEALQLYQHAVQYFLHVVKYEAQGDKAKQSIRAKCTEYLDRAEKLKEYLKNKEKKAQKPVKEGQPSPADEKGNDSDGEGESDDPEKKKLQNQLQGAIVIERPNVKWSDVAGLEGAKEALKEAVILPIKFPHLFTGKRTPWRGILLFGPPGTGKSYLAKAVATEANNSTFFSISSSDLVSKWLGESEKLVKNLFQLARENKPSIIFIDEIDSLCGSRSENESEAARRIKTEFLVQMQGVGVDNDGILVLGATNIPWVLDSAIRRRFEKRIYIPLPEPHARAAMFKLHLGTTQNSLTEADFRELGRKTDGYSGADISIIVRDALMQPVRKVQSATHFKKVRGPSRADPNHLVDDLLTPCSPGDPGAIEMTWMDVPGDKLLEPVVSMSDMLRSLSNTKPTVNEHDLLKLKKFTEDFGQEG
Outline: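 EnzChek phosphate release (MESG/PNP, 360 nm) with ATPases at 1 μM (diluted stock) in HEPES pH 7.4 buffers with MgCl2, CaCl2, DTT, BSA, Triton; 30 min compound preincubation at RT, started with MgATP, read 20 min at 37 °C. Activity from 5-min linear initial rate, normalized to DMSO; IC50 from Hill slope −1 fit.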

Structure (SMILES): COc1cccc2c(NCc3ccccc3)nc(NCc3ccccc3)nc12 [Compound 4-107, N^2,N^4-dibenzyl-8-methoxyquinazoline-2,4-diamine]
- GFP-CHMP4B (% 4-107) ([1]; screened at 1 µM, mean ± S.D., Supplemental Table 2): 100.00 ± 17.20 % 4-107
- GFP-CHMP4B (% 4-107) ([1]; screened at 1 μM, starvation media, 1 hour, foci intensity per cell normalized to 4-107, mean ± SD, Table 1, listed as 1): 100.00 ± 17.20 % 4-107
- Papp A→B at 10 μM [2]: 0.03 ×10⁻⁶ cm/s
- Papp B→A at 10 μM [2]: 0.3 ×10⁻⁶ cm/s
- efflux ratio at 10 μM [2]: 10.3
- mCherry-LGALS3 signals (endolysosomal membrane integrity) [3]: increase in mCherry-LGALS3 signals
- IC50 ([4]; 0.5 μM enzyme): 3.7 ± 0.1 µM
- VPS4B ATPase (% DMSO) ([4]; remaining ATPase activity, screened at 5 μM, mean ± SD, Table 1, listed as 1): 36.67 ± 1.73 % DMSO
- VPS4B ATPase (% DMSO) ([4]; screened at 5 µM, mean ± S.D., Supplemental Table 2): 36.67 ± 1.73 % DMSO
